In patent US5089479A, “Adhesion of Mycoplasma pneumoniae and Mycoplasma hominus to sulfatide” (priority 1988, dated 1992):
Entries after “also recorded” stand apart in the source; their conditions may differ.

Experiments:
M. pneumoniae [1] = test: Mycoplasma overlay assay: binding of [3H]-M. pneumoniae to glycolipids on thin layer chromatograms; design: species or system Mycoplasma pneumoniae strain M129; conditions: for Binding (ability to bind M. pneumoniae): Table I, class by amount of lipid bound; for binding of M. pneumoniae to glycolipid (in words): thin layer chromatogram overlay
Protocol: Virulent M. pneumoniae strain M129, passage 5-15, were grown and metabolically labelled with [^3 H]palmitic acid, 12-17 Ci/mole, as described by Chandler et al. in Infect. Immun. 37: 942, 1982. The organisms were passed four times through a 26 gauge needle and suspended to approximately 10^7 cpm/ml of degassed RPMI 1640 medium containing 1% bovine serum albumin and 25 mM HEPES, pH 7.3.
M. pneumoniae were bound to glycolipids separated on thin-layer chromatograms as described in detail for other bacteria by Krivan et al., Proc. Natl. Acad. Sci. 85: 6157-6161, 1988, and Krivan et al., Arch. Biochem. Biophys. 260:493-496, 1988. Briefly, glycolipids were separated by thin-layer chromatography on aluminum-backed silica gel high-performance plates developed with chlooform:methanol:0.25% CaCl2 in water (60:35:8). After chromatography, the plates were coated with 0.1% polyisobutylmethacrylate, soaked in 0.05 M Tris-HCl, pH 7.6, containing […] sodium chloride, 5 mM CaCl2, 0.2 mM phenylmethane-sulfonyl fluoride, and 1% bovine serum albumin (TBS-BSA) and incubated for three hours at 25° C. with 60 μl/cm^2 of [^3 H]-labelled M. pneumoniae, approximately 10^7 cpm/ml of RPMI-BSA. The plates were gently washed five times in 0.01 M sodium phosphate, pH 7.2, containing 0.15 M sodium chloride (PBS) to remove unbound organisms, dried, and exposed for 24 hours to Ultrofilm ^3 H (2208-190) high speed film.
To obtain the results shown in FIG. 1, glycolipids were chromatographed on aluminum-backed silica gel HPTLC plates developed in chloroform/methanol/0.25% CaCl2 in water, 60:35:8. The plates were coated with plastic, soaked in Tris-BSA, and incubated for three hours at 25° C. with [^3 H]-palmitate-labelled M. pneumoniae suspended in RPMI 1640 containing 1% BSA and 25 mM HEPES, pH 7.3, as described above (Panel A), or sprayed with orcinol reagent to identify glycolipids (Panel B). Lane a, acidic glycolipid standards sulfatide (0.5 μg), GM3 (2 μg), GM2 (2 μg), GD1a (2 μg), GD1b (2 μg), GT1b (2 μg); lane b, neutral standards galactosyl ceramide (4 μg), lactosylceramide (4 μg), globotriaosylceramide (2 μg), c2(0.5 μg). and c3 (o.1 μg); lane d, seminolipid (2 μg); lane e, cholesterol 3 -sulfate (2 μg); lane f, human trachea acidic glycolipids from 100 mg wet weight […]; lane h, α2-3sialylparagloboside (2 μg); lane 1, I-active monosialylganglioside from bovine erythrocytes (2 μg).

M. pneumoniae [2] = test: M. pneumoniae adhesion to immobilized glycoproteins adsorbed on plastic; format: binding, Mycoplasma pneumoniae strain M129; conditions: for M. pneumoniae adhesion to immobilized glycoprotein (in words): adsorbed on plastic; for Relative binding activity: relative to fetuin = 1.0, from amount for half maximal binding, mean of 2 or 3 experiments; for amount of glycoprotein coated that promotes adhesion: coated wells
Protocol: Glycoproteins dissolved in 0.01 M sodium phosphate buffer, pH 7.4, containing 150 mM NaCl, 1 mM CaCl2, and 0.01% NaN3 were adsorbed onto plastic polyvinylchloride […] microtiter plates by incubation for 16 hours at 4° C. The unbound proteins were removed, and the wells were filled with tris-BSA and incubated for 30 minutes at room temperature. The wells were rinsed with RPMI1640 containing 25 mM HEPES, pH 7.3, and 1% bovine serum albumin. M. pneumoniae strain M129 labelled with [^3 H]-palmitate were dispersed in RPMI-BSA by passing four times through a 26 gauge needle, and 50 μl of the suspension was applied to the wells. After incubation for 60 minutes at 37° C., the wells were washed five times with saline and the labelled M. pneumoniae bound to the proteins were quantified by scintillation counting in Aquasol. […]

For glucosylceramide [Glucosylcer (CMH)], the “Binding (ability to bind M. pneumoniae)” value (M. pneumoniae [1]) was “+ (2-4 μg)” and the “binding of M. pneumoniae to glycolipid (in words)” value (“binding of M. pneumoniae” below) (M. pneumoniae [1]) was “weakly”.

Human Transferrin: protein was tested, and the “M. pneumoniae adhesion to immobilized glycoprotein (in words)” value (from here on “M. pneumoniae adhesion”) (M. pneumoniae [2]) was “no binding of M. pneumoniae was detected” and the Relative binding activity (M. pneumoniae [2]) was < 0.01.

For Asialo GM1, the “Binding (ability to bind M. pneumoniae)” value (M. pneumoniae [1]) was “- (no binding to 4 μg of lipid)”.

In the case of “Lactosylceramide-II^3 -sulfate [Lactosylsulfatide]”, the “Binding (ability to bind M. pneumoniae)” value (M. pneumoniae [1]) is reported as “+++ (positive binding to less than 0.5 μg)”, the “binding of M. pneumoniae” value (M. pneumoniae [1]; listed as lactosyl sulfatide) is reported as “bound” and the “binding of M. pneumoniae” value (M. pneumoniae [1]; listed as lactosylsulfatide) is reported as “bound strongly”.

“Human platelet thrombospondin: adhesive glycoprotein” was tested, and the “M. pneumoniae adhesion” value (M. pneumoniae [2]) was “strongly promote adhesion”, the “amount of glycoprotein coated that promotes adhesion” value (M. pneumoniae [2]) was “less than 10 ng” and the Relative binding activity (M. pneumoniae [2]) was 0.7.

For GD1^b, the “Binding (ability to bind M. pneumoniae)” value (M. pneumoniae [1]) was “- (no binding to 4 μg of lipid)” and the “binding of M. pneumoniae” value (M. pneumoniae [1]) was “No binding was detected”.

With “β-galactosylalkylacylglycerol-I^3 -sulfate [Seminolipid]” the “Binding (ability to bind M. pneumoniae)” value (M. pneumoniae [1]) was “+++ (positive binding to less than 0.5 μg)” and the “binding of M. pneumoniae” value (M. pneumoniae [1]) was “bound strongly; also recorded: bound”.

For Alpha2-3-sialylparagloboside (NeuGc), the “Binding (ability to bind M. pneumoniae)” value (M. pneumoniae [1]) was “- (no binding to 4 μg of lipid)”.

For “Lactoisooctaosylceramide [I-active Lacto- isooctaosylcer]”, the “Binding (ability to bind M. pneumoniae)” value (M. pneumoniae [1]) was “- (no binding to 4 μg of lipid)”.

“Bovine Fetuin: major protein in fetal calf serum” was tested, and the “M. pneumoniae adhesion” value (M. pneumoniae [2]) was “promote dose-dependent and saturable adhesion”, the “amount of glycoprotein coated that promotes adhesion” value (M. pneumoniae [2]) was “less than 10 ng” and the Relative binding activity (M. pneumoniae [2]) was 1.0.

In the case of “α-Ga121actoisooctaosylceramide [I-active Gal2 - lactoisooctaosylcer]”, the “Binding (ability to bind M. pneumoniae)” value (M. pneumoniae [1]) is reported as “- (no binding to 4 μg of lipid)”.

In the case of GD1a, the “Binding (ability to bind M. pneumoniae)” value (M. pneumoniae [1]) is reported as “- (no binding to 4 μg of lipid)” and the “binding of M. pneumoniae” value (M. pneumoniae [1]) is reported as “No binding was detected”.

In the case of “α2-3-sialyllactoneohexaosylceramide [Sialylneolacto-hexaoslycer]”, the “Binding (ability to bind M. pneumoniae)” value (M. pneumoniae [1]) is reported as “- (no binding to 4 μg of lipid)”.

For “Galactosyl ceramide-I6-sulfate [Sulfatide Gal(6SO4)β11Cer]”, the “Binding (ability to bind M. pneumoniae)” value (M. pneumoniae [1]) was “+++ (positive binding to less than 0.5 μg)”, the “binding of M. pneumoniae” value (M. pneumoniae [1]; listed as 6-sulfate isomer) was “does not discriminate between galactosyl ceramide I^3 -sulfate and its unnatural 6-sulfate isomer” and the “binding of M. pneumoniae” value (M. pneumoniae [1]; listed as isomer of sulfatide in which the terminal sulfate is linked to the 6-position of) was “bound”.

With “Lacto-N-triaosylceramide [Lacto- --N-triaosylcer]” the “binding of M. pneumoniae” value (M. pneumoniae [1]) was “weakly”.

“α2-3-sialyl-paragloboside (NeuAc) [Sialylparagloboside]” was tested, and the “Binding (ability to bind M. pneumoniae)” value (M. pneumoniae [1]) was “- (no binding to 4 μg of lipid)” and the “binding of M. pneumoniae” value (M. pneumoniae [1]) was “No binding was detected”.

In the case of “IV^3 GalnLcOse4Cer [α-Galactosylparagloboside]”, the “Binding (ability to bind M. pneumoniae)” value (M. pneumoniae [1]) is reported as “+ (2-4 μg)” and the “binding of M. pneumoniae” value (M. pneumoniae [1]; listed as o-galactosylparagloboside) is reported as “weakly”.

In the case of “IV^3 -[3'SO3 GlcA]- nLcOse4Cer [SO4 -Glucuronosylparagloboside]”, the “Binding (ability to bind M. pneumoniae)” value (M. pneumoniae [1]) is reported as “- (no binding to 4 μg of lipid)” and the “binding of M. pneumoniae” value (M. pneumoniae [1]) is reported as “does not bind”.

In the case of GT1b, the “Binding (ability to bind M. pneumoniae)” value (M. pneumoniae [1]) is reported as “- (no binding to 4 μg of lipid)” and the “binding of M. pneumoniae” value (M. pneumoniae [1]) is reported as “No binding was detected”.

With “sialyllactofucopentaosyl-(III)-ceramide [Sialylneolactofucopenta-osylcer]” the “Binding (ability to bind M. pneumoniae)” value (M. pneumoniae [1]) was “- (no binding to 4 μg of lipid)”.

With Bovine serum Albumin: protein the Relative binding activity (M. pneumoniae [2]) was < 0.01.
